Experimental data taken from PMC5030124 (Nature chemical biology, 2016).

Tests used:
LNCaP-AR cells = test: Prostate cancer cell proliferation assay, LNCaP-AR; conditions: 7 days, increasing doses, no R1881
[1] = tested on: AR recruitment to KLK3 and NKX3-1 regulatory regions in LNCaP-AR cells; test: Chromatin immunoprecipitation assay, LNCaP-AR cells; assay type: cell-based; conditions: Enz 10 μM, Bic 10 μM, 10 20 μM, R1881 0.1 nM
[2] = tested on: AR target gene expression in LNCaP-AR cells; test: Real-time PCR of AR target genes in LNCaP-AR cells; assay type: cell-based; conditions: CBs 20 μM, Enz 10 μM; for AR target gene expression, absence of R1881: Bic 10 μM
in vivo = conditions: NSG, mouse, ip
[3] = tested on: nuclear AR in HEK293 cells expressing wt-AR; test: Cellular fractionation assay, HEK293 cells expressing wt-AR; assay type: cell-based; conditions: 4 hours, R1881 0.1 nM
[4] = tested on: AR subcellular distribution in VCaP cells; test: High content imaging of AR N/C ratio, VCaP cells; conditions: R1881 0.1 nM, Enz 20 μM, 10 20 μM
[5] = tested on: AR subcellular distribution in HEK293 cells expressing wt-AR; test: High content imaging of AR N/C ratio, HEK293 cells expressing wt-AR; conditions: R1881 0.1 nM, Enz 20 μM, 10 20 μM

SMILES	cell growth of LNCaP-AR cells (LNCaP-AR cells)	recruitment of AR to DNA (ChIP) [1]	AR target gene expression, absence of R1881 [2]	MTD (in vivo)	AR target gene expression, presence of R1881 ([2]; R1881 0.1 nM)	AR in nuclear and cytoplasmic fractions [3]	AR nuclear-to-cytoplasmic (N/C) ratio [4]	AR nuclear-to-cytoplasmic (N/C) ratio [5]
CC(O)(CS(=O)(=O)c1ccc(F)cc1)C(=O)Nc1ccc(C#N)c(C(F)(F)F)c1 (stereo not drawn) [Bic, bicalutamide]	promoted cellular proliferation	facilitated AR recruitment to DNA	partial agonist					
CNC(=O)c1ccc(N2C(=S)N(c3ccc(C#N)c(C(F)(F)F)c3)C(=O)C2(C)C)cc1F [Enz, enzalutamide]	without effect	without effect	did not promote AR target gene transcription	15 mg/kg	reversed androgen-stimulated gene expression			
C[C@]1(O)CC[C@H]2[C@@H]3CCC4=CC(=O)CCC4=C3C=C[C@@]21C [R1881]		facilitated AR recruitment to DNA				movement of AR from the cytoplasmic to nuclear fraction	increase in AR nuclear-to-cytoplasmic (N/C) ratio	increase in AR nuclear-to-cytoplasmic (N/C) ratio
